Results from patent publication US10517842B2, “Methods of modulating miRNA levels and compositions for use in the same” (Los Angeles Biomedical Research Institute at Harbor-UCLA …, priority 2017, dated 2019).

Columns and labels:
[1] = test system: leiomyoma smooth muscle cells (LSMC); experiment: Cell proliferation assay (MTT); format: cell-based, human; conditions: Tranilast 100 to 400 μM, 48 hrs, dose-dependent, p<0.05
Source text: Leiomyomas and matched myometrium (N=12) were collected from patients scheduled to undergo hysterectomy at Harbor-UCLA Medical Center with prior approval from Institutional Review Board (#036247). The tissues were either snap frozen and stored in liquid nitrogen for further analysis, or used for isolation of LSMC as previously described (Chuang et al., “miR-200c is aberrantly expressed in leiomyomas in an ethnic-dependent manner and targets ZEBs, VEGFA, TIMP2, and FBLN5,” Endocrine-related cancer (2012)19:541-56; Chuang et al., “miR-93/106b and their host gene, MCM7, are differentially expressed in leiomyomas and functionally target F3 and IL-8. Molecular endocrinology,” (2012) 26:1028-42). Briefly, LSMC were cultured in DMEM supplemented with 10% fetal bovine serum until reaching confluence with a change of media every 2-3 days. […]
LSMC were seeded at 1000 cells/well in 96-well plates and cultured for 48 hrs. […] The rate of cell proliferation was determined using the MTT assay and cells were photographed as previously described (Chuang & Khorram, “Mechanisms underlying aberrant expression of miR-29c in uterine leiomyoma,” Fertility and sterility (2016)105:236-45.e1; Chuang et al., “The Regulatory Function of miR-200c on Inflammatory and Cell-Cycle Associated Genes in SK-LMS-1, A Leiomyosarcoma Cell Line,” Reproductive sciences (2015) 22:563-71). […]

[2] = test system: CCND1; experiment: Quantitative RT-PCR, mRNA expression in LSMC; format: cell-based, human; conditions: Tranilast 200 μM vs DMSO, 12 h to 48 h, P<0.05
Protocol: (§1) Total RNA was extracted from LSMC using RNAzol (GeneCopoeia, Rockville, Md.) and their quantity and quality was determined (ND-1000 Spectrophotometer, NanoDrop Technologies, Wilmington, Del.) as previously described (Chuang & Khorram, “miR-200c Regulates IL8 Expression by Targeting IKBKB: A Potential Mediator of Inflammation in Leiomyoma Pathogenesis,” PloS one (2014) 9:e95370). For medium miRNA extraction, 5 pg of synthetic miR-1 from Caenorhabditis elegans (cel-miR-1) was added as a spike-in control for purification efficiency. Subsequently, 2 μg or 10 ng (for miRNA) was reverse transcribed using random primers for CCND1, CDK2, COL1A1, COL3A1, TGF-β3, DNMT1 and EZH2 or specific primers for miR-29c and miR-200c according to the manufacturer's guidelines (Applied Biosystems, Carlsbad, Calif.). Quantitative RT-PCR was carried out using SYBR gene expression master mix or TaqMan miRNA expression assays (Applied Biosystems). Reactions were incubated for 10 min at 95° C. followed by 40 cycles for 15 seconds at 95° C. and 1 min at 60° C. The level of mRNAs and expression of cellular and secreted miRNA was determined using the Invitrogen StepOne System with 18S, RNU6B and cel-miR-1 used for normalization respectively. All reactions were run in triplicate and relative expression was analyzed with the comparative cycle threshold method (2^−ΔΔCT) according to the manufacturer (Applied Biosystems). Values were expressed as fold change compared to the control group.

[3] = test system: CDK2; experiment: Quantitative RT-PCR, mRNA expression in LSMC; format: cell-based, human; conditions: Tranilast 200 μM vs DMSO, 12 h to 48 h, P<0.05
Protocol: as §1

[4] = test system: COL1; experiment: Quantitative RT-PCR, mRNA expression in LSMC; format: cell-based, human; conditions: Tranilast 200 μM vs DMSO, 12 h to 48 h, P<0.05
Protocol: as §1

[5] = test system: COL3A1; experiment: Quantitative RT-PCR, mRNA expression in LSMC; format: cell-based, human; conditions: Tranilast 200 μM vs DMSO, 12 h to 48 h, P<0.05
Protocol: as §1

[6] = test system: DNMT1; experiment: Quantitative RT-PCR, mRNA expression in LSMC; format: cell-based, human; conditions: Tranilast 200 μM vs DMSO, 12 h to 48 h, P<0.05
Protocol: as §1

[7] = test system: EZH2; experiment: Quantitative RT-PCR, mRNA expression in LSMC; format: cell-based, human; conditions: Tranilast 200 μM vs DMSO, 12 h to 48 h, P<0.05
Protocol: as §1

[8] = test system: TGF-β3; experiment: Quantitative RT-PCR, mRNA expression in LSMC; format: cell-based, human; conditions: Tranilast 200 μM vs DMSO, 12 h to 48 h, P<0.05
Protocol: as §1

[9] = test system: miR-200c; experiment: Quantitative RT-PCR (TaqMan miRNA assay), cellular and secreted miRNA in LSMC; format: cell-based, human; conditions: Tranilast 200 μM, 48 hours, P<0.05
Protocol: as §1

[10] = test system: miR-29c; experiment: as above; format: cell-based, human; conditions: Tranilast 200 μM, 48 hours, P<0.05
Protocol: as §1

[11] = test system: 3′UTR fragment of IL8; experiment: 3′UTR luciferase reporter assay in LSMC; format: cell-based, human; conditions: Tranilast 200 μM vs DMSO
Protocol: FIG. 10A: The relative luciferase activity in LSMC treated with Tranilast (200 μM) or DMSO as control for 48 hrs prior to transfection with Renilla and Firefly luciferase reporter plasmids carrying a 3′UTR fragment of COL3A1, CDK2 or IL8 and incubated with Tranilast (200 μM) or DMSO containing medium after transfection for another 48 hrs. The relative luciferase activity is presented as the ratio of Firefly:Renilla as compared to DMSO which was independently set as 1. The results are presented as mean±SEM of at least three sets of independent experiments using LSMC isolated from 3 patients. FIG. 10B: Protein expression of COL3A1 and CDK2 was determined after transfection of anti-miR scrambled oligonucleotides (aNC) or anti-miR-29c oligonucleotides (a29c) in LSMC for 72 hrs with DMSO or Tranilast (200 μM) treatment for the last 48 hrs. GAPDH was used as loading control. The result is one representative of at least three sets of independent experiments using LSMC isolated from 3 patients. FIG. 10C: The bar graph presented the relative band densities as mean±SEM of at least three independent experiments. Inhibition of protein expression by Tranilast treatment was calculated relative to changes in corresponding DMSO controls in cells transfected with aNC or anti-miR-29c.

[12] = test system: 3′UTR of COL3A1 in lung cancer cell line A549; experiment: 3′UTR luciferase reporter assay in A549; format: cell-based; conditions: Tranilast
[13] = test system: 3′UTR of CDK2 in lung cancer cell line A549; experiment: 3′UTR luciferase reporter assay in A549; format: cell-based; conditions: Tranilast

Which results are given for `COc1ccc(C=CC(=O)Nc2ccccc2C(=O)O)cc1OC` [Tranilast, 2-[[3-(3,4-dimethoxyphenyl)-1-oxo-2-propenyl]amino]benzoic acid]?
rate of LSMC cell proliferation [1]: significantly inhibited; CCND1 expression, mRNA level [2]: significantly inhibited; CDK2 expression, mRNA level [3]: significantly inhibited; COL1 expression, mRNA level [4]: significantly inhibited; COL3A1 expression, mRNA level [5]: significantly inhibited; DNMT1 expression, mRNA level [6]: significantly inhibited; EZH2 expression, mRNA level [7]: significantly inhibited; TGF-β3 expression, mRNA level [8]: significantly inhibited; expression of secreted (medium) miR-200c ([9]; LSMC medium): significantly increased; expression of cellular miR-200c ([9]; LSMC): significantly increased; expression of secreted (medium) miR-29c ([10]; LSMC medium): significantly increased; expression of cellular miR-29c ([10]; LSMC): significantly increased; expression of IL8 (heading to FIG. 10A, 3′UTR reporter) [11]: Down-regulated; activity of luciferase reporter containing 3′UTR of COL3A1 [12]: Inhibits; activity of luciferase reporter containing 3′UTR of CDK2 [13]: Inhibits
